# According to ChEMBL document CHEMBL5528052, “Single Deletion Unmasks Hidden Anti-Gram-Negative Bacterial Activity of an Insect Defensin-Derived Peptide” (J Med Chem, 2024):
# The source made the active and inactive calls. The calls are words filed in the database; no cut-off is given here. Bridge positions count the residues as written; N and C are the ends. Peptide text beside a SMILES is read from it.
# Experiments:
# Aspergillus niger = assay: Antifungal activity against Aspergillus niger at 1 nmol relative to control; format: functional, organism-based
# Salmonella enterica [1] = assay: Antimicrobial activity against Salmonella enterica ATCC 14028 at 1 nmol relative to control; format: functional, organism-based
# Escherichia coli [2] = assay: Antimicrobial activity against Escherichia coli J45b at 1 nmol relative to control; format: functional, organism-based
# [3] = Retention time of the compound by RP-HPLC analysis; format: physicochemical
# Aspergillus fumigatus = assay: Antifungal activity against Aspergillus fumigatus YJ-407 at 1 nmol relative to control; format: functional, organism-based
# Pseudomonas aeruginosa [4] = assay: Antimicrobial activity against Pseudomonas aeruginosa O1 at 1 nmol relative to control; format: functional, organism-based
# Pseudomonas aeruginosa [5] = assay: Antimicrobial activity against Pseudomonas aeruginosa 374 at 1 nmol relative to control; format: functional, organism-based
# Curtobacterium luteum [6] = assay: Antimicrobial activity against Curtobacterium luteum assessed as lethal concentration; format: functional
# Staphylococcus aureus [7] = assay: Antimicrobial activity against Staphylococcus aureus J685 assessed as lethal concentration; format: functional
# Ralstonia solanacearum = assay: Antimicrobial activity against Ralstonia solanacearum at 1 nmol relative to control; format: functional, organism-based
# Pseudomonas aeruginosa [8] = assay: Antimicrobial activity against Pseudomonas aeruginosa 11082603 at 1 nmol relative to control; format: functional, organism-based
# Pseudomonas aeruginosa [9] = assay: Antimicrobial activity against Pseudomonas aeruginosa 11082616 at 1 nmol relative to control; format: functional, organism-based
# Escherichia coli [10] = assay: Antimicrobial activity against Escherichia coli DH5alpha at 1 nmol relative to control; format: functional, organism-based
# Metarhizium robertsii = assay: Antifungal activity against Metarhizium robertsii at 1 nmol relative to control; format: functional, organism-based
# Alcaligenes faecalis = assay: Antimicrobial activity against Alcaligenes faecalis CGMCC 1.1837 at 1 nmol relative to control; format: functional, organism-based
# Staphylococcus warneri = assay: Antimicrobial activity against Staphylococcus warneri ATCC 1.2824 at 1 nmol relative to control; format: functional, organism-based
# Micrococcus luteus [11] = assay: Antimicrobial activity against Micrococcus luteus CGMCC 1.0290 assessed as lethal concentration; format: functional
# Beauveria bassiana = assay: Antifungal activity against Beauveria bassiana 252 at 1 nmol relative to control; format: functional, organism-based
# Pseudomonas aeruginosa [12] = assay: Antimicrobial activity against Pseudomonas aeruginosa QT1 at 1 nmol relative to control; format: functional, organism-based
# Pseudomonas aeruginosa [13] = assay: Antimicrobial activity against Pseudomonas aeruginosa FRD1 at 1 nmol relative to control; format: functional, organism-based
# Priestia megaterium [14] = assay: Antimicrobial activity against Bacillus megaterium CGMCC 1.0459 assessed as lethal concentration; format: functional
# Komagataella pastoris = assay: Antifungal activity against Pichia pastoris X33 at 1 nmol relative to control; format: functional, organism-based
# Pseudomonas aeruginosa [15] = assay: Antimicrobial activity against Pseudomonas aeruginosa at 1 nmol relative to control; format: functional, organism-based
# Escherichia coli [16] = assay: Antimicrobial activity against Escherichia coli J14b at 1 nmol relative to control; format: functional, organism-based
# Staphylococcus aureus [17] = assay: Antimicrobial activity against Staphylococcus aureus J685 at 1 nmol relative to control; format: functional, organism-based
# Streptococcus salivarius = assay: Antimicrobial activity against Streptococcus salivarius ATCC 1.2498 at 1 nmol relative to control; format: functional, organism-based
# Streptococcus sanguinis [18] = assay: Antimicrobial activity against Streptococcus sanguinis ATCC 1.2497 assessed as lethal concentration; format: functional
# Aspergillus nidulans = assay: Antifungal activity against Aspergillus nidulans A28 at 1 nmol relative to control; format: functional, organism-based
# Escherichia coli [19] = assay: Antimicrobial activity against Escherichia coli J23a at 1 nmol relative to control; format: functional, organism-based
# Escherichia coli [20] = assay: Antimicrobial activity against Escherichia coli J16c at 1 nmol relative to control; format: functional, organism-based
# Staphylococcus aureus [21] = assay: Antimicrobial activity against methicillin-resistant Staphylococcus aureus P1386 at 1 nmol relative to control; format: functional, organism-based
# [22] = system: Staphylococcus epidermidis; assay: Antimicrobial activity against penicillin-resistant Staphylococcus epidermidis P1389 assessed as lethal concentration; format: functional
# Pseudomonas aeruginosa [23] = assay: Antimicrobial activity against Pseudomonas aeruginosa 11092304 at 1 nmol relative to control; format: functional, organism-based
# Bacillus subtilis [24] = assay: Antimicrobial activity against Bacillus subtilis CGMCC 1.2428 assessed as lethal concentration; format: functional
# Escherichia coli [25] = assay: Antimicrobial activity against Escherichia coli G2b at 1 nmol relative to control; format: functional, organism-based
# Geotrichum candidum = assay: Antifungal activity against Geotrichum candidum CCTCC AY 93038 at 1 nmol relative to control; format: functional, organism-based
# Pseudomonas aeruginosa [26] = assay: Antimicrobial activity against Pseudomonas aeruginosa 11092618 at 1 nmol relative to control; format: functional, organism-based
# Staphylococcus [27] = assay: Antimicrobial activity against methicillin-resistant coagulase negative Staphylococcus P1369 assessed as lethal concentration; format: functional
# [28] = system: Lysinibacillus fusiformis; assay: Antimicrobial activity against Lysinibacillus fusiformis assessed as lethal concentration; format: functional
# Pseudomonas aeruginosa [29] = assay: Antimicrobial activity against Pseudomonas aeruginosa DH at 1 nmol relative to control; format: functional, organism-based
# Staphylococcus aureus [30] = assay: Antimicrobial activity against methicillin-resistant Staphylococcus aureus P1374 assessed as lethal concentration; format: functional
# Aspergillus flavus = assay: Antifungal activity against Aspergillus flavus at 1 nmol relative to control; format: functional, organism-based
# [31] = system: Stenotrophomonas maltophilia; assay: Antimicrobial activity against Stenotrophomonas maltophilia CGMCC 1.1788 at 1 nmol relative to control; format: functional, organism-based
# Streptococcus mutans = assay: Antimicrobial activity against Streptococcus mutans ATCC 1.2499 at 1 nmol relative to control; format: functional, organism-based
# Salmonella enterica [32] = assay: Antimicrobial activity against Salmonella enterica ATCC 14028 at 0.25 to 1 nmol; format: functional, organism-based; settings: dose 0.25-1 nmol
# [33] = system: Staphylococcus epidermidis; assay: Antimicrobial activity against penicillin-resistant Staphylococcus epidermidis P1389 at 1 nmol relative to control; format: functional, organism-based
# Staphylococcus aureus [34] = assay: Antimicrobial activity against penicillin-resistant Staphylococcus aureus P1383 at 1 nmol relative to control; format: functional, organism-based
# [35] = system: Lysinibacillus fusiformis; assay: Antimicrobial activity against Lysinibacillus fusiformis at 1 nmol relative to control; format: functional, organism-based
# Streptococcus sanguinis [36] = assay: Antimicrobial activity against Streptococcus sanguinis ATCC 1.2497 at 1 nmol relative to control; format: functional, organism-based
# Staphylococcus aureus [37] = assay: Antimicrobial activity against methicillin-resistant Staphylococcus aureus P1374 at 1 nmol relative to control; format: functional, organism-based
# Bacillus subtilis [38] = assay: Antimicrobial activity against Bacillus subtilis CGMCC 1.2428 at 1 nmol relative to control; format: functional, organism-based
# Staphylococcus [39] = assay: Antimicrobial activity against methicillin-resistant coagulase negative Staphylococcus P1369 at 1 nmol relative to control; format: functional, organism-based
# Priestia megaterium [40] = assay: Antimicrobial activity against Bacillus megaterium CGMCC 1.0459 at 1 nmol; format: functional, organism-based
# Curtobacterium luteum [41] = assay: Antimicrobial activity against Curtobacterium luteum at 1 nmol relative to control; format: functional, organism-based
# Micrococcus luteus [42] = assay: Antimicrobial activity against Micrococcus luteus CGMCC 1.0290 at 1 nmol relative to control; format: functional, organism-based
# Erythrocyte = assay: Hemolytic activity in mouse erythrocytes assessed as hemolysis at 100 uM; format: toxicity, cell-based
compound,measurement,setting,value
CC[C@H](C)[C@H](NC(=O)[C@H](C)NC(=O)[C@H](CCCCN)NC(=O)[C@H](CC(N)=O)NC(=O)[C@H](CC(N)=O)NC(=O)[C@H](CS)NC(=O)[C@H](Cc1ccc(O)cc1)NC(=O)[C@H](CS)NC(=O)[C@@H](NC(=O)[C@H](C)N)[C@@H](C)O)C(=O)N[C@@H](CS)C(=O)N[C@H](C(=O)N[C@H](CS)C(=O)N[C@H](CCCNC(=N)N)C(=O)N[C@H](CCCNC(=N)N)C(N)=O)C(C)C,Activity,Aspergillus niger,inactive
same,Activity,Salmonella enterica [1],inactive
same,Activity,Escherichia coli [2],inactive
same,Retention_time,[3],15.2 min
same,Activity,Aspergillus fumigatus,inactive
same,Activity,Pseudomonas aeruginosa [4],inactive
same,Activity,Pseudomonas aeruginosa [5],inactive
same,LD,Curtobacterium luteum [6],0.13 µM
same,LD,Staphylococcus aureus [7],8.34 µM
same,Activity,Ralstonia solanacearum,inactive
same,Activity,Pseudomonas aeruginosa [8],inactive
same,Activity,Pseudomonas aeruginosa [9],inactive
same,Activity,Escherichia coli [10],inactive
same,Activity,Metarhizium robertsii,inactive
same,Activity,Alcaligenes faecalis,inactive
same,Activity,Staphylococcus warneri,inactive
same,LD,Micrococcus luteus [11],1.96 µM
same,Activity,Beauveria bassiana,inactive
same,Activity,Pseudomonas aeruginosa [12],inactive
same,Activity,Pseudomonas aeruginosa [13],inactive
same,LD,Priestia megaterium [14],2.44 µM
same,Activity,Komagataella pastoris,inactive
same,Activity,Pseudomonas aeruginosa [15],inactive
same,Activity,Escherichia coli [16],inactive
same,Activity,Staphylococcus aureus [17],inactive
same,Activity,Streptococcus salivarius,inactive
same,LD,Streptococcus sanguinis [18],10.4 µM
same,Activity,Aspergillus nidulans,inactive
same,Activity,Escherichia coli [19],inactive
same,Activity,Escherichia coli [20],inactive
same,Activity,Staphylococcus aureus [21],inactive
same,LD,[22],4.1 µM
same,Activity,Pseudomonas aeruginosa [23],inactive
same,LD,Bacillus subtilis [24],3.54 µM
same,Activity,Escherichia coli [25],inactive
same,Activity,Geotrichum candidum,inactive
same,Activity,Pseudomonas aeruginosa [26],inactive
same,LD,Staphylococcus [27],4.31 µM
same,LD,[28],5.35 µM
same,Activity,Pseudomonas aeruginosa [29],inactive
same,LD,Staphylococcus aureus [30],14.29 µM
same,Activity,Aspergillus flavus,inactive
same,Activity,[31],inactive
"CC[C@H](C)[C@@H]1NC(=O)[C@H](CCCCN)NC(=O)[C@H](CC(N)=O)NC(=O)[C@H](CC(N)=O)NC(=O)[C@@H]2CSSC[C@H](NC1=O)C(=O)N[C@@H](C(C)C)C(=O)N[C@H](C(=O)N[C@@H](CCCNC(=N)N)C(=O)N[C@@H](CCCNC(=N)N)C(=O)O)CSSC[C@H](NC(=O)[C@@H](NC(=O)[C@H](C)N)[C@@H](C)O)C(=O)N[C@@H](Cc1ccc(O)cc1)C(=O)N2 (H-ATCYCNNKICVCRR-OH; disulfide 3-12, 5-10)",Activity,Aspergillus niger,inactive
same,Activity,Salmonella enterica [1],inactive
same,Activity,Escherichia coli [2],inactive
same,Retention_time,[3],16 min
same,Activity,Aspergillus fumigatus,inactive
same,Activity,Pseudomonas aeruginosa [4],inactive
same,Activity,Pseudomonas aeruginosa [5],inactive
same,LD,Curtobacterium luteum [6],4.3 µM
same,Activity,Ralstonia solanacearum,inactive
same,Activity,Pseudomonas aeruginosa [8],inactive
same,Activity,Pseudomonas aeruginosa [9],inactive
same,Activity,Streptococcus mutans,inactive
same,Activity,Escherichia coli [10],inactive
same,Activity,Metarhizium robertsii,inactive
same,Activity,Alcaligenes faecalis,inactive
same,Activity,Staphylococcus warneri,inactive
same,LD,Micrococcus luteus [11],3.52 µM
same,Activity,Beauveria bassiana,inactive
same,Activity,Pseudomonas aeruginosa [12],inactive
same,Activity,Pseudomonas aeruginosa [13],inactive
same,Activity,Salmonella enterica [32],inactive
same,LD,Priestia megaterium [14],2.58 µM
same,Activity,Komagataella pastoris,inactive
same,Activity,Pseudomonas aeruginosa [15],inactive
same,Activity,Escherichia coli [16],inactive
same,Activity,Staphylococcus aureus [17],inactive
same,Activity,[33],inactive
same,Activity,Streptococcus salivarius,inactive
same,Activity,Aspergillus nidulans,inactive
same,Activity,Staphylococcus aureus [34],inactive
same,Activity,[35],inactive
same,Activity,Streptococcus sanguinis [36],inactive
same,Activity,Escherichia coli [19],inactive
same,Activity,Escherichia coli [20],inactive
same,Activity,Staphylococcus aureus [21],inactive
same,Activity,Pseudomonas aeruginosa [23],inactive
same,Activity,Escherichia coli [25],inactive
same,Activity,Geotrichum candidum,inactive
same,Activity,Pseudomonas aeruginosa [26],inactive
same,LD,Staphylococcus [27],5.3 µM
same,Activity,Staphylococcus aureus [37],inactive
same,Activity,Bacillus subtilis [38],inactive
same,Activity,Pseudomonas aeruginosa [29],inactive
same,Activity,Aspergillus flavus,inactive
same,Activity,[31],inactive
H-ATSYSNNKISVSRR-NH2,Activity,Staphylococcus [39],inactive
same,Activity,Aspergillus niger,inactive
same,Activity,Salmonella enterica [1],inactive
same,Activity,Escherichia coli [2],inactive
same,Activity,Aspergillus fumigatus,inactive
same,Activity,Pseudomonas aeruginosa [4],inactive
same,Activity,Pseudomonas aeruginosa [5],inactive
same,Activity,Ralstonia solanacearum,inactive
same,Activity,Pseudomonas aeruginosa [8],inactive
same,Activity,Pseudomonas aeruginosa [9],inactive
same,Activity,Streptococcus mutans,inactive
same,Activity,Escherichia coli [10],inactive
same,Activity,Metarhizium robertsii,inactive
same,Activity,Alcaligenes faecalis,inactive
same,Activity,Staphylococcus warneri,inactive
same,Activity,Priestia megaterium [40],Active
same,Activity,Beauveria bassiana,inactive
same,Activity,Pseudomonas aeruginosa [12],inactive
same,Activity,Pseudomonas aeruginosa [13],inactive
same,Activity,Curtobacterium luteum [41],inactive
same,Activity,Komagataella pastoris,inactive
same,Activity,Pseudomonas aeruginosa [15],inactive
same,Activity,Escherichia coli [16],inactive
same,Activity,Staphylococcus aureus [17],inactive
same,Activity,[33],inactive
same,Activity,Streptococcus salivarius,inactive
same,Activity,Aspergillus nidulans,inactive
same,Activity,Staphylococcus aureus [34],inactive
same,Activity,[35],inactive
same,Activity,Streptococcus sanguinis [36],inactive
same,Activity,Escherichia coli [19],inactive
same,Activity,Escherichia coli [20],inactive
same,Activity,Staphylococcus aureus [21],inactive
same,Activity,Pseudomonas aeruginosa [23],inactive
same,Activity,Escherichia coli [25],inactive
same,Activity,Geotrichum candidum,inactive
same,Activity,Pseudomonas aeruginosa [26],inactive
same,Activity,Micrococcus luteus [42],inactive
same,Activity,Staphylococcus aureus [37],inactive
same,Activity,Bacillus subtilis [38],inactive
same,Activity,Pseudomonas aeruginosa [29],inactive
same,Activity,Aspergillus flavus,inactive
same,Activity,[31],inactive
H-FFGHLFKLATKIIPSLFQ-OH,Activity,Erythrocyte,Non-Toxic
